In patent US20240294697A1, “AMPHIPHILIC OLIGOMERS AND SELF-ASSEMBLING HYDROGELS FORMED THEREFROM” (THE GOVERNING COUNCIL OF THE UNIVERSITY OF TORONTO, priority 2021, published 2024):

System: primary chondrocytes
Details: H2O2 between 25 and 100 μM

concentrations resulting in metabolically active cells: below 50 μM
SMILES: OO [H2O2, hydrogen peroxide]
concentrations evidencing cell toxicity: above 50 μM
